These results are taken from EP3318253B1, “COMPOSITIONS COMPRISING WNT INHIBITORS FOR TREATING CANCER” (Schmidt-Wolf, Ingo, priority 2010, dated 2012).

Each structure is given as a SMILES string. Some results are limits rather than exact numbers.

The test system of one data set is PBMC. In words: Cell viability by DiOC6 staining, flow cytometry (normal control cells). Type of data set: cell-based, human. As for the experimental part: (§1) PBMCs were isolated from blood of healthy donors by Ficoll-Hypaque density gradient centrifugation. Blood from buffy coats was mixed 1:2 with PBS/1% BSA (both PAA, Cölbe, Germany) and used for a ficoll gradient (LymphoPrep, PAA, Cölbe, Germany). After the centrifugation at 800 g for 30 minutes, the leukocyte layer was removed and transferred to new tubes. Subsequently, these cells were washed 3 times with PBS/1%BSA and re-suspended in fresh medium, consisting of RPMI medium (PAA, Cölbe, Germany) with 10% fetal calf serum (Invitrogen, Karlsruhe, Germany), 2.5% hepes buffer solution (PAA, Cölbe, Germany), and 1% penicillin/streptomycin (PAA, Cölbe, Germany).
(§2) Experiments were performed as reported recently.
For orientation: In flow cytometry, cells or beads pass a laser one at a time.

The subject of the next data set is β-catenin. In words: Western blot, β-catenin expression in KMS-18 cells. Type of data set: cell-based, human. The note with it: KMS-18 cells treated for 24h. Here is the method: Western blot was performed as described recently^16.
• Figure 1. […] Data are shown as mean ± SD. • Figure 2. […] Data are shown as mean ± SD. • Figure 3. […] (A) Flow cytometric results. […] Finally, ECL reagent was utilized for detection. • Figure 4C. […] Finally, ECL reagent was utilized for detection. • Figure 5. Effect of EA on viability of myeloma primary cells. […] Results represent data from two separate experiments. Data are shown as mean. • Figure 6. […] (A) Tumor growth and (B) overall survival were measured. Six animals were assayed per group.
Western blot was performed as described recently.
• Figure 7. […] Data are shown as mean ± SD. • Figure 8. […] Data are shown as mean ± SD. • Figure 9. Effect of CIC on the Wnt/beta catenin pathway. (A) Flow cytometric results. […] Finally, ECL reagent was utilized for detection. • Figure 10C. […] Finally, ECL reagent was utilized for detection. • Figure 11. […] (A) Tumor growth and (B) overall survival were measured. Six animals were assayed per group. HD CIC.
Background: Immunoblotting shows a protein as a band on a membrane.

Data set [1] can be described thus: Cell viability by DiOC6 staining, flow cytometry (normal control cells). Type of data set: cell-based, human. The note with it: human; control of PBMC; after 72 h; read-out: relative viability. Here is the method:
as §1, §2

A further data set deals with LEF-1 protein (Homo sapiens, UniProt Q9UJU2). The note with it: immune co-precipitation; destabilizes the LEF-1/β-catenin complex; cited from earlier work.
Chain of LEF-1 protein (Q9UJU2 whole entry): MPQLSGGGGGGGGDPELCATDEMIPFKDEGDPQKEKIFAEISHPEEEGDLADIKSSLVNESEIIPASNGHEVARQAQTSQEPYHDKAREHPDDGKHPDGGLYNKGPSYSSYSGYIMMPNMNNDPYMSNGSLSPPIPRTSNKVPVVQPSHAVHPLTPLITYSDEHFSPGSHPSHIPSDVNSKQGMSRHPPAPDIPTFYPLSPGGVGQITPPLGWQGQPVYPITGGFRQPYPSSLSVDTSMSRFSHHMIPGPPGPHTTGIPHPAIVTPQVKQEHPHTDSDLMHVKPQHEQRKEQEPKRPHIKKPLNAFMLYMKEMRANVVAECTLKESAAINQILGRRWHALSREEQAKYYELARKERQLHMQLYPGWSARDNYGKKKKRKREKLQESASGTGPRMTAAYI
In data set [2] the test system is Wnt/β-catenin target genes, including LEF-1, cyclin D1 and fibronectin. Particulars: CLL cells exposed to EA; cited from earlier work.

As for `Cc1cc(C2CCCCC2)n(O)c(=O)c1` [CIC, ciclopirox olamine], the IC50 in the data set on PBMC (Homo sapiens, PBMC, after 72 h) is more than 400 µM; in the data set with PBMC (PBMC from healthy individuals, three days) it was more than 400 µM. In the data set on PBMC (normal PBMC and PBL, result in words), the “effect on normal PBMC and PBL” value is recorded as “marginal”. Further, the β-catenin expression entry in the data set on β-catenin is “decreased”.
Consider `C=C(CC)C(=O)c1ccc(OCC(=O)O)c(Cl)c1Cl` [EA, 2-[2,3-dichloro-4-(2-methylidenebutanoyl)phenoxy] acetic acid], for which, in the data set with PBMC (Homo sapiens, 72 h, PBMC from healthy individuals, three days), the IC50 was more than 400 µM. Further, in data set [1], the viability at 72 h, 30 µM was 89.5 ± 3.1%. For the same compound, at LEF-1 protein, the “binding to LEF-1 protein” value is “directly bind”. In addition, the β-catenin expression result in the data set with β-catenin was “increased”. Further, the “expression of Wnt/β-catenin target genes” value in data set [2] is listed as “decreased”.

Broadly, the IC50 is the concentration needed to halve the response being measured. A lower IC50 goes with inhibition by little substance. Broadly, the viability is a read-out of living cells in per cent, often relative to untreated cells.
